Measured values published in patent US20090247634A1, “Methods for identifying modulators of eoxin formation” (priority 2006, published 2009).
Values joined by “and” are separate entries in the source; they are usually repeats but may differ in a detail not shown here. Identical values can stand only once.

Key:
[1] = system: confluent bovine endothelium cells; assay: Endothelial cell barrier function (TEER), Example 6a; type: cell-based
Procedure: Bovine aorta endothelial cells (BAEC) and human umbilical vein endothelial cells (HUVEC) were isolated and cultured with calf serum or human serum. BAEC or HUVEC in the first to fifth passages were detached by brief (2 min) trypsin-EDTA treatment (0.25% trypsin/0.01% EDTA) and replated onto 3.0 μm pore size polycarbonate filters (Tissue Culture inserts, 10 mm; NUNC, Roskilde, Denmark) or, for the purpose of visual inspection, 0.2 μm pore size Anopore inorganic membrane (transparent when wet). In order to promote cellular differentiation and enhance attachment of EC, the filters were pretreated with 50 μl Biomatrix 1 (167 μg/ml) and air-dried. EC were seeded at a density of 2×10^5 cells per filter and incubated in culture medium at 37° C. in a humidified atmosphere of 5% CO2 in air. The EC were grown to confluent monolayers, as assessed by daily microscopic observation, in transparent 0.2 μm pore size filters and measurement of the electrical resistance across the monolayer. Under these experimental conditions maximal resistance is obtained at day 7 postseeding, at which day the EC monolayers were then used in the experiments.
Rapid changes in endothelial cell (EC) barrier function in response to various arachidonic acid metabolites were analysed through continuous registration of transendothelial electrical resistance (TEER) with electrodes on each side of EC monolayer^18. For measurement of TEER, the filter insert with ECs was transferred to a resistance measurement chamber (Endohm-12, World Precision Instruments, Sarasota, Fla., USA) modified so as to assure exact positioning of the electrodes in relation to each other and to the filter insert daring repeated measurements. The chamber (low compartment) and the filter insert (upper compartment) were filled with 2 ml and 400 μl culture medium, respectively. All measurements were made at 37° C. with the equipment placed in a cell culture incubator. Direct readings of the electrical resistance were given by an ohmmeter (Evom, World Precision Instruments, Sarasota, Fla., US) connected to the electrodes of the resistance chamber. The electrical resistance of individual EC monolayers was obtained by subtracting the resistance of the corresponding naked filter coated with Biomatrix as measured prior to seeding of the EC. Thus, TEER values represent the resistance of the EC monolayer solely and depend on the development of tight junctions between adjoining endothelial cells.

[2] = system: neutrophils; assay: Oxidative metabolism of neutrophils, lucigenin-enhanced chemiluminescence; type: cell-based, human
Procedure: Neutrophil and eosinophil granulocytes were purified from peripheral whole blood using a Percoll gradient and the magnetic cell separation system (MACS).
Granulocytes were primed for 30 minutes at 37° C. with either IL-5 (10.5 ng/mL) or GM-CSF (10.5 ng/mL) and subsequently stimulated with IL-5 (100 ng/mL), GM-CSF (100 ng/mL), LTB4 (10^−7M) or Eoxin (10^−8-10^−6M). Oxidative metabolism was measured by a lucigenin-enhanced chemiluminescence (CL) assay.

[3] = Non-enzymatic metabolism during incubation at 37° C.; type: physicochemical; settings: 60 min incubation at 37° C.
Procedure: In order to analyze if eosinophils can metabolize 14,15-LTC4 to 14,15-LTD4 and 14,15-LTE4, eosinophils were incubated with synthetic 14,15-LTC4 or 14 (R)-cysteinyl-glycyl-15(S)-hydroxy-5,8,10,12(Z,Z,E,E)-eicosatetraenoic acid (14,15-LTD4) for 60 min at 37° C. The metabolites formed were analyzed with product ion scan at 497.2 m/z for 14,15-LTD4 and 440.2 m/z for 14,15-LTE4. The retention time and mass spectrum of a product formed (Metabolite 2) from 14,15-LTC4 were identical to synthetic 14,15-LTD4 (FIG. 30B), and a product formed (Metabolite 3) after incubation with 14,15-LTD4 had identical retention time and mass spectrum as synthetic 14 (R)-cysteinyl-15(S)-hydroxy-5,8,10,12(Z,Z,E,E)-eicosatetraenoic (14,15-LTE4) (FIG. 30C). […] (data not shown). Basically, the product ion mass spectra of 14,15-leukotrienes and corresponding 5-lipoxygenase derived cysteinyl-leukotrienes are almost identical. However, 14,15-leukotrienes form a fragment at 205 m/z, whereas the corresponding fragment in 5-lipoxygenase derived cysteinyl-leukotrienes is at 189 m/z (FIG. 31). These collision induced dissociation products are probably formed by a cleavage next to the carbon where the cysteinyl group is positioned, which is at carbon 14 for 14,15-leukotrienes and carbon 6 for leukotrienes.

[4] = system: eosinophils; assay: Metabolism in eosinophils after 5 min of incubation; settings: 5 min of incubation, 37° C.
Procedure: (§1) Human eosinophils contain abundant amounts of both 15-lipoxygenase and 5-lipoxygenase. […] The cells were incubated for five minutes at 37° C. and the amounts of 14,15-LTC4 and LTC4 were analyzed with RP-HPLC. […] Therefore, measurement of these metabolites is considered to reflect the total formation of 15-lipoxygenase derived cysteinyl-containing 14,15-leukotrienes and 5-lipoxygenase derived cysteinyl-containing leukotriens, respectively.

[5] = system: guinea pig pulmonary parenchymal strip or ileum; settings: cited from earlier work
[6] = system: eosinophils; assay: Biosynthesis of 14,15-LTC4 and LTC4 in eosinophils (RP-HPLC); type: cell-based, human; settings: arachidonic acid (10 μM), 5 min, 37° C.; one line per donor 1-11
Procedure: as §1
Isolated eosinophils (1-20×10^6/sample) were resuspended in phosphate buffered saline (1 ml/sample) and pre-incubated for 2 minutes in 37° C. (in presence or absence of indomethacin, 1 μM) prior to stimulation with ionophore A23187 (1 μM)/arachidonic acid (1 or 10 μM)/A23187 plus arachidonic acid/PGD2 (1 μM)/LTC4 (1 μM)/IL-5 (10 ng/ml)/14,15-LTC4 (10 μM) or 14,15-LTD4 (10 μM) for indicated time periods at 37° C. The incubations were terminated by addition of one volume of methanol (for analysis by RP-HPLC). For subsequent analysis by enzyme immunoassay (EIA), reactions were terminated by rapid cool off, 0° C., before centrifugation at 1200×g, 5 min. Supernatants were transferred to cryo tubes and stored in −70° C. until analyzed.
In order to get rid of cellular debris and proteins, centrifugation at 1200×g for 5 min. was performed. Supernatants were evaporated under reduced pressure and the residues resolved in methanol and transferred to a test tube. Samples were thereafter evaporated to dryness under a stream of nitrogen, and finally resuspended in 200 μl mobile phase (acetonitril:methanol:H20:acetic acid, 29:19:72:0.8, pH adjusted to 5.6 with NH3 for analysis of leukotrienes and 14,15-leukotrienes, and methanol:water:trifluoroacetic acid 70:30:0.007 for analysis of monohydroxy acids). The extracted samples were subjected to analysis in a reverse phase HPLC system as described. Briefly, samples were applied to a octadecyl reverse phase column (Chromabond ^18C, Macherey-Nagel, Duren, Germany) and elution rate was 1.2 ml/minute.

[7] = system: cord blood derived mast cells; assay: Biosynthesis of 14,15-LTC4 in IL-4 primed cord blood derived mast cells (EIA); type: cell-based, human; settings: arachidonic acid (10 μM), 5 min, n=3
Procedure: Mast cells play a key role in the pathophysiology of asthma. Recently, we reported that interleukin-4 (IL-4) induced the expression of 15-LO-1 in human cord blood derived mast cells in vitro and that mast cells express 15-LO-1 in vivo (4). Therefore, it was of interest to investigate if mast cells could produce 14,15-leukotrienes. IL-4 primed mast cells were incubated with arachidonic acid (10 μM) for 5 min. Supernatants were collected and analyzed using an EIA against 14,15-LTC4. Under these conditions, human mast cells released 0.8+/−0.6 pmol/10^6 cells, (n=3), indicating the capacity to synthesise and release immunoreactive 14,15-LTC4 after arachidonic acid stimulation.
Prior to incubation, CBMC cells were primed for four days with IL-4 (10 ng/ml). After mechanical removal and washing in PBS, cells were resuspended in PBS and pre-incubated with or without indomethacin (1 μM) for 2 minutes in 37° C. The CBMC cells were subsequently incubated in 37° C. with arachidonic acid for indicated time periods. Incubations were terminated either by addition of one volume of methanol (LC-MS analysis) or by rapid cool off, 0° C., and subsequently analyzed by EIA.

[8] = system: human endothelial cell (EC) monolayers; type: cell-based; settings: no granulocytes present
From the text: To explore the ability of 14,15-LTC4 and its metabolites 14,15-LTD4 and 14,15-LTE4 to induce alterations in vascular permeability, an established in vitro permeability assay based on assessment of changes in electrical resistance across human endothelial cell (EC) monolayers was used. Maximum stimulus-induced change in EC resistance in this model reaches down to approximately −70%.
Human umbilical vein endothelial cells (HUVEC) were isolated and cultured as previously described (24). The cells were seeded onto 3 μm pore size polycarbonate filters (Tissue Culture inserts, 10 mm; NUNC, Roskilde, Denmark) at a density of 2×10^5 cells and grown to confluent monolayers. The capacity of arachdonic acid metabolites to induce changes in barrier function of endothelial cell (EC) monolayers was analyzed through continuous registration of transendothelial electrical resistance (TEER) (24). For measurement of TEER, the filter insert with ECs was transferred to a resistance measurement chamber (Endohm-12, World Precision Instruments, Sarasota, Fla., USA) modified so as to assure exact positioning of the electrodes in relation to each other and to the filter insert during repeated measurements. […] The electrical resistance of individual EC monolayers was obtained by subtracting the resistance of the corresponding naked filter coated with Biomatrix as measured prior to seeding of the EC. […]

CCCCC[C@H](O)[C@@H](/C=C/C=C/C=C\C/C=C\CCCC(=O)O)SC[C@H](NC(=O)CC[C@H](N)C(=O)O)C(=O)NCC(=O)O [EoxC4, 14 (R)-glutathionyl-15 (S)-hydroxy-5,8,10,12 (Z,Z,E,E)-eicosatetraenoic acid]
plasma leakage / change in TEER ([1]; 10^−7 and 10^−8 M): induce significant plasma leakage | potency relative to the most potent 5-lipoxygenase derived leukotrienes ([1]; FIG. 22): about five to ten times less potent | radical production by GM-CSF primed neutrophils ([2]; GM-CSF (10.5 ng/mL) primed, Eoxin 10^−8-10^−6M): induced the radical production by GM-CSF primed neutrophils in a dose-dependent manner | responders ([2]; GM-CSF primed neutrophils): 7-8 subjects of 13 | non-enzymatic metabolism [3]: no non-enzymatic metabolism | metabolism in eosinophils [4]: almost no metabolism | bronchoconstriction ([5]; Drazen et al. 1981): did not induce bronchoconstriction | contractile effects ([5]; guinea pig pulmonary parenchymal strip or ileum): appear not to have contractile effects

CCCCC/C=C\C/C=C\C/C=C\C/C=C\CCCC(=O)O [Arachidonic acid]
14,15-LTC4 [6]: 58 pmol/10^7 and 74 pmol/10^7 and 34 pmol/10^7 and 12 pmol/10^7 and 26 pmol/10^7 and 46 pmol/10^7 and 16 pmol/10^7 and 22 pmol/10^7 and 48 pmol/10^7 and 40 pmol/10^7 and 32 pmol/10^7 | LTC4 [6]: 34 pmol/10^7 and 12 pmol/10^7 and 20 pmol/10^7 and 0 pmol/10^7 (4×) and 6 pmol/10^7 and 10 pmol/10^7 and 38 pmol/10^7 and 22 pmol/10^7 | 14,15-LTC4 released by mast cells [7]: 0.8+/−0.6 pmol/10^6 cells

CCCCC/C=C\C[C@@H](O)/C=C/C=C/C=C\[C@@H](O)CCCC(=O)O [LTB4, leukotriene B4]
effect on EC barrier function [8]: no effect | oxygen free radical production by non-primed neutrophils ([2]; non-primed blood neutrophils, GM-CSF 100 ng/mL, LTB4 10^−7M, Eoxin 10^−8-10^−6M): induced the oxygen free radical production
